Reference: article PMC12250347, “Calcium-dependent pathway as a primary cause of hypoxic RGC damage in monkey retinal explants” (PLOS One, 2025)
pIC50: −log10 of the molar value. “Also recorded” adds a separate entry of the source.

What was measured:
[1] = molecular target: T1, human erythrocyte calpain 1 (Homo sapiens, UniProt P07384); assay: Calpain-Glo Protease Assay; assay type: biochemical; conditions: 5 mM CaCl2, 10 min, room temperature; mean of two experiments
T1 construct: human erythrocyte calpain 1 (MilliporeSigma); purchased MilliporeSigma; host or cells: human erythrocytes
T1 sequence (P07384 1-714): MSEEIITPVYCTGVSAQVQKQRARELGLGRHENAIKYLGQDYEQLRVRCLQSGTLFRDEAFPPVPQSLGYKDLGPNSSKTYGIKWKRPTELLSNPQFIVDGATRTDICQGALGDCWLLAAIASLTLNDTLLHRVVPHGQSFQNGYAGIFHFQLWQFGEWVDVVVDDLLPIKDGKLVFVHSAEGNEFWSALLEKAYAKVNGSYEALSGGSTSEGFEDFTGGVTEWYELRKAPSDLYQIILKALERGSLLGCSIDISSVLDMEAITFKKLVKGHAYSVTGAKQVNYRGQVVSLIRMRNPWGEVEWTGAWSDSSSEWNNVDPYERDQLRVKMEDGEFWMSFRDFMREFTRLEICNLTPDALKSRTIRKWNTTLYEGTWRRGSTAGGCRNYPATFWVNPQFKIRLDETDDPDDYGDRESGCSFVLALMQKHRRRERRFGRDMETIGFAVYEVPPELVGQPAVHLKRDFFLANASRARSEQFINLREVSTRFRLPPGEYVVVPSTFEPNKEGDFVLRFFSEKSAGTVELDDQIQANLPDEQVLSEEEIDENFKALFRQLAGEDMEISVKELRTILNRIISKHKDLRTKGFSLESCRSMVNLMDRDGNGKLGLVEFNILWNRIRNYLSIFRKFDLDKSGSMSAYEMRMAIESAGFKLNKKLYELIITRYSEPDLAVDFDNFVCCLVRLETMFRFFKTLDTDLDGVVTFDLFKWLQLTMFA
T1 sequence (P04632 1-268 partner): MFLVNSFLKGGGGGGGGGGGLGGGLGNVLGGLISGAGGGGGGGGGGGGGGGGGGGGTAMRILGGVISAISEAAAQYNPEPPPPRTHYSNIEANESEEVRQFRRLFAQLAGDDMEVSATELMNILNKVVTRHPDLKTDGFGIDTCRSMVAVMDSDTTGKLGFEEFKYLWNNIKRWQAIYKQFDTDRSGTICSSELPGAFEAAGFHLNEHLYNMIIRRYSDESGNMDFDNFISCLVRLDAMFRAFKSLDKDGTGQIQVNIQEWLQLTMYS
Description: For measurement of inhibitory activities against calpains in vitro, Calpain-Glo Protease Assay (Promega; Madison, WI, USA) was performed using human erythrocyte calpain 1 (MilliporeSigma) and purified porcine calpain 2. Briefly, 24 µL of each calpain diluted with 20 mM Tris-HCl (pH 7.4), 1 µL of each inhibitor, and 25 µL of reaction buffer including CaCl2 in a 96-well plate was incubated for 10 min at room temperature. The final concentration of CaCl2 in the reaction solution was 5 mM. The luminescence was measured using a microplate reader (GloMax Discover System; Promega). IC50 values from two independent experiments were averaged.

[2] = tested on: RGCs in monkey retinal explants; assay: PI staining and RGC counting in retinal explants under hypoxia/reoxygenation; assay type: cell-based, rhesus macaques (Macaca mulatta)
Text: Globes were obtained from rhesus macaques (Macaca mulatta) at 1–7 years of age from the Oregon National Primate Research Center (Beaverton, OR, USA). The wide range of ages was unavoidable because they became available from experiments that were unrelated to the present studies. These eyes were acceptable for the purpose of our experiments. The eyes were dissected within 5 hr after death, and excised eyes were soaked in cold Hanks’ balanced salt solution (HBSS; Corning, NY, USA) or Dulbecco’s phosphate-buffered saline (DPBS; Corning). Experimental animals were handled in accordance with the Research in Vision and Ophthalmology Statement for the Use of Animals in Ophthalmic and Vision Research and with the Guiding Principles in the Care and Use of Animals (Department of Health Education and Welfare Publication National Institutes of Health 80−23).
Retina explant culture was performed as described in our previous report, except for the induction of hypoxia. Briefly, a hypoxic chamber (Coy Laboratory Products, Grass Lake, MI, USA) was controlled at 0.3% oxygen with a 95% N2/5% CO2 gas mixture. Retinas were dissected into fan-shaped explants with 6 or 7 petals (> 5 mm) in HBSS. Each explant was placed with the RGC side facing up on a Millicell organotypic standing insert (0.4 μm, 30 mm diameter, MilliporeSigma) in six-well, culture plates. They were cultured for 2 hr at 37°C under 95% N2/5% CO2 in Neurobasal-A medium supplemented with B27, N2 supplements, 2 mM L-glutamine (Thermo Fisher Scientific, Waltham, MA, USA), and 100 μg/mL primocin (Invivogen, San Diego, CA, USA). Retinal explants were then chamber-cultured under hypoxic conditions for 16 hr in a culture medium with 0.5 mM glucose, under 0.3% oxygen. The retinas were then re-oxygenated for 8 hr in a culture medium with 5.5 mM glucose. Normoxic control retinas were cultured for 24 hr in a culture medium with 5.5 mM glucose. When present, calpain inhibitors (SNJ-1945, PD-151746, C2I, and ABT-957) and cathepsin inhibitors (Odanacatib and SID26681509) in 0.1% DMSO were used at the final concentration of 10 or 100 μM in the medium. BAPTA (Thermo Fisher Scientific) and BAPTA-AM (Thermo Fisher Scientific) were also used at a final concentration of 3 or 10 mM or a final concentration of 100 or 500 μM, respectively.
All inhibitors and BAPTA were treated simultaneously with hypoxia induction, and BAPTA-AM treatment was 2 hr before hypoxia induction.
To assess the disruption of membrane barrier function, propidium iodide (PI) was utilized. Following hypoxia/reoxygenation treatment, retinal explants were incubated for 20 min in a medium containing a final concentration of 2 μg/ml of PI. For quantitative analysis, the RGC marker, RNA-binding protein with multiple splicing (RBPMS) was used at a 1:100 dilution (PhosphoSolutions, Aurora, CO, USA). RBPMS-positive and PI-positive cells in the ganglion cell layer were counted in 2 images from 2 square areas (775 × 775 μm each) located 3–5 mm and 5–7 mm away from the tips of the fan-shaped retinal flat mounts. The percentage of PI-positive RGCs was calculated as [the number of PI and RBPMS-double positive cells/the number of all RBPMS-positive cells] × 100.

[3] = 16 hr hypoxia/8 hr reoxygenation (H16R8), cathepsin inhibitor at 10 or 100 µM

| pIC50 [1] | Structure (SMILES) | Effect on percentage of PI-positive RGCs [2, 3] | Effect on percentage of PI-positive RGCs ([2]; H16R8, calpain inhibitor at 100 µM) |
| --- | --- | --- | --- |
| 4.80 | CC(C)(F)C[C@H](N[C@@H](c1ccc(-c2ccc(S(C)(=O)=O)cc2)cc1)C(F)(F)F)C(=O)NC1(C#N)CC1 [Odanacatib] | did not reduce |  |
| 4.09 | CCc1ccccc1NC(=O)CSC(=O)NNC(=O)[C@H](Cc1c[nH]c2ccccc12)NC(=O)OC(C)(C)C [SID26681509] | did not reduce |  |

| Structure (SMILES) | pIC50 [1] | Effect on percentage of PI-positive RGCs [2, 3] | Effect on percentage of PI-positive RGCs ([2]; H16R8, calpain inhibitor at 100 µM) |
| --- | --- | --- | --- |
| COCCOCCOC(=O)N[C@@H](CC(C)C)C(=O)N[C@@H](Cc1ccccc1)C(=O)C(=O)NC1CC1 [SNJ-1945] | 7.11 |  | significantly decreased; also recorded: demonstrated efficacy in reducing PI-positive RGCs |
